Data from US9096565B2, “Inhibitors of histone deacetylase” (MethylGene Inc., priority 2007, dated 2015).

These molecules were tested against one or more of HDAC-4, HDAC-5, HDAC-6, HDAC-7, HDAC-8, HDAC-9, HDAC-10 and HDAC-11 (assay: Inhibition of histone deacetylase enzymatic activity (summary statement over isoforms)). Details: Table 3, selected examples; HDAC isoform not given.
Format: biochemical
Method in brief: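 HDAC enzyme mix with compound was preincubated 5 min at room temperature. Reaction was started at 37 °C with Boc-Lys(trifluoroacetyl)-AMC substrate and run 20-30 min. It was stopped with trypsin (1 mg/mL) plus a known HDAC inhibitor to release the fluorogenic AMC.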
With `O=C(NO)C(c1ccccc1)N1C[C@@H]2C[C@H]1CO2` (stereo partly drawn) [Compound 5-71, 2-((1S,4S)-2-oxa-5-azabicyclo[2.2.1]heptan-5-yl)-N-hydroxy-2-phenylacetamide] the IC50 was 1 to 15 µM.
Work on `O=C(NO)C(c1ccccc1)c1ccc(-n2cccn2)cc1` (stereo not drawn) [Compound 5-72, 2-(4-(1H-pyrazol-1-yl)phenyl)-N-hydroxy-2-phenylacetamide] yielded an IC50 of less than 1 µM.
With `O=C(NO)C(c1ccccc1)N1CCN(c2ccccn2)CC1` (stereo not drawn) [Compound 5-73, N-hydroxy-2-phenyl-2-(4-(pyridin-2-yl)piperazin-1-yl)acetamide] the IC50 was less than 1 µM.
`O=C(NO)C(c1ccccc1)c1ccc(-c2ncccc2F)cc1` (stereo not drawn) [Compound 5-74, 2-(4-(3-fluoropyridin-2-yl)phenyl)-N-hydroxy-2-phenylacetamide] was tested, and the IC50 was less than 1 µM.
With `O=C(NO)C(c1ccccc1)c1ccc(N2CCN(C(=O)OCc3ccccc3)CC2)cc1` (stereo not drawn) [Compound 5-75, benzyl 4-(4-(2-(hydroxyamino)-2-oxo-1-phenylethyl)phenyl)piperazine-1-carboxylate] the IC50 was less than 1 µM.
Molecule `O=C(NO)C(c1ccccc1)c1ccc(N2CCN(Cc3ccc4c(c3)OCO4)CC2)cc1` (stereo not drawn) [Compound 5-76, 2-(4-(4-(benzo[d][1,3]dioxol-5-ylmethyl)piperazin-1-yl)phenyl)-N-hydroxy-2-phenylacetamide] has an IC50 of less than 1 µM.
`O=C(NO)C(c1ccccc1)c1ccc(N2CCN(C3CCCC3)CC2)cc1` (stereo not drawn) [Compound 5-77, 2-(4-(4-cyclopentylpiperazin-1-yl)phenyl)-N-hydroxy-2-phenylacetamide] was tested, and the IC50 was less than 1 µM.
`O=C(NO)C(c1ccccc1)c1ccc(N2C[C@@H]3C[C@H]2CO3)cc1` (stereo partly drawn) [Compound 5-78, 2-(4-((1S,4S)-2-oxa-5-azabicyclo[2.2.1]heptan-5-yl)phenyl)-N-hydroxy-2-phenylacetamide] showed an IC50 of less than 1 µM.
`Cn1cncc1C#Cc1ccc(C(C(=O)NO)c2ccccc2)cc1` (stereo not drawn) [Compound 5-79, N-hydroxy-2-(4-((1-methyl-1H-imidazol-5-yl)ethynyl)phenyl)-2-phenylacetamide] gave an IC50 of less than 1 µM.
In the case of `Cc1cc(C)nc(N2CCN(C(C(=O)NO)c3ccccc3)CC2)n1` (stereo not drawn) [Compound 5-80, 2-(4-(4,6-dimethylpyrimidin-2-yl)piperazin-1-yl)-N-hydroxy-2-phenylacetamide], the IC50 is reported as less than 1 µM.
Work on `O=C(NO)C(c1ccccc1)c1ccc(-n2ccc3ccccc32)cc1` (stereo not drawn) [Compound 5-81, 2-(4-(1H-indol-1-yl)phenyl)-N-hydroxy-2-phenylacetamide] yielded an IC50 of less than 1 µM.
Molecule `CCN(CC)c1ccc(C(C(=O)NO)c2ccc3c(c2)CCO3)cc1` (stereo not drawn) [Compound 5-82, 2-(4-(diethylamino)phenyl)-2-(2,3-dihydrobenzofuran-5-yl)-N-hydroxyacetamide] has an IC50 of less than 1 µM.
With `CN1CCN(c2ccc(C(C(=O)NO)c3ccccc3)cc2)CC1` (stereo not drawn) [Compound 5-83, N-hydroxy-2-(4-(4-methylpiperazin-1-yl)phenyl)-2-phenylacetamide] the IC50 was less than 1 µM.
For `COc1ccc(N2CCN(c3ccc(C(C(=O)NO)c4ccccc4)cc3)CC2)cc1` (stereo not drawn) [Compound 5-84, N-hydroxy-2-(4-(4-(4-methoxyphenyl)piperazin-1-yl)phenyl)-2-phenylacetamide], the IC50 was less than 1 µM.
Molecule `O=C(NO)C(c1ccccc1)c1ccc(N2CCN(C/C=C/c3ccccc3)CC2)cc1` (stereo not drawn) [Compound 5-85, (E)-2-(4-(4-cinnamylpiperazin-1-yl)phenyl)-N-hydroxy-2-phenylacetamide] has an IC50 of less than 1 µM.
`O=C(NO)C(c1ccccc1)c1ccc(N2CCNCC2)cc1` (stereo not drawn) [Compound 5-86, N-hydroxy-2-phenyl-2-(4-(piperazin-1-yl)phenyl)acetamide] was tested, and the IC50 was less than 1 µM.
`O=C(NO)C(c1ccccc1)N1CCN(S(=O)(=O)Cc2ccccc2)CC1` (stereo not drawn) [Compound 5-87, 2-(4-(benzylsulfonyl)piperazin-1-yl)-N-hydroxy-2-phenylacetamide] gave an IC50 of 1 to 15 µM.
Work on `O=C(NO)C(c1ccccc1)c1ccc(-n2ccnc2)cc1` (stereo not drawn) [Compound 5-88, 2-(4-(1H-imidazol-1-yl)phenyl)-N-hydroxy-2-phenylacetamide] yielded an IC50 of less than 1 µM.
`O=C(NO)C(c1ccc(F)cc1)c1cccc(-c2ccccc2)c1` (stereo not drawn) [Compound 5-89, 2-(biphenyl-3-yl)-2-(4-fluorophenyl)-N-hydroxyacetamide] showed an IC50 of less than 1 µM.
`O=C(NO)C(c1ccc(F)cc1)c1ccc(N2CCOCC2)cc1` (stereo not drawn) [Compound 5-90, 2-(4-fluorophenyl)-N-hydroxy-2-(4-morpholinophenyl)acetamide] was tested, and the IC50 was less than 1 µM.
Work on `O=C(NO)C(c1ccccc1)c1ccc(C#CCN2CCS(=O)(=O)CC2)cc1` (stereo not drawn) [Compound 5-91] yielded an IC50 of less than 1 µM.
With `COc1ncc(-c2ccc(C(C(=O)NO)c3ccccc3)cc2)cn1` (stereo not drawn) [Compound 5-92, N-hydroxy-2-(4-(2-methoxypyrimidin-5-yl)phenyl)-2-phenylacetamide] the IC50 was less than 1 µM.
`CC(C)N1CCN(c2ccc(C(C(=O)NO)c3ccccc3)cc2)CC1` (stereo not drawn) [Compound 5-93, N-hydroxy-2-(4-(4-isopropylpiperazin-1-yl)phenyl)-2-phenylacetamide] gave an IC50 of less than 1 µM.
Work on `CN(C)CCN1CCN(c2ccc(C(C(=O)NO)c3ccccc3)cc2)CC1` (stereo not drawn) [Compound 5-94, 2-(4-(4-(2-(dimethylamino)ethyl)piperazin-1-yl)phenyl)-N-hydroxy-2-phenylacetamide] yielded an IC50 of less than 1 µM.
In the case of `O=C(NO)C(c1ccccc1)c1ccc(CCCN2CCS(=O)(=O)CC2)cc1` (stereo not drawn) [Compound 5-95], the IC50 is reported as less than 1 µM.
With `O=C(NO)C(c1ccccc1)c1ccc(OCCN2CCCC2)cc1` (stereo not drawn) [Compound 5-96, N-hydroxy-2-phenyl-2-(4-(2-(pyrrolidin-1-yl)ethoxy)phenyl)acetamide] the IC50 was less than 1 µM.
Work on `O=C(NO)C(c1ccccc1)c1ccc(N2CCN(S(=O)(=O)c3ccccc3)CC2)cc1` (stereo not drawn) [Compound 5-97, N-hydroxy-2-phenyl-2-(4-(4-(phenylsulfonyl)piperazin-1-yl)phenyl)acetamide] yielded an IC50 of less than 1 µM.
`O=CN(O)C(c1ccccc1)c1ccc(OCc2ccccc2)cc1` (stereo not drawn) [Compound 5-98, N-((4-(benzyloxy)phenyl)(phenyl)methyl)-N-hydroxyformamide] gave an IC50 of 1 to 15 µM.
Work on `CN1CCC(Oc2ccc(C(C(=O)NO)c3ccccc3)cc2)CC1` (stereo not drawn) [Compound 5-99, N-hydroxy-2-(4-(1-methylpiperidin-4-yloxy)phenyl)-2-phenylacetamide] yielded an IC50 of less than 1 µM.
`COCCN1CCN(c2ccc(C(C(=O)NO)c3ccccc3)cc2)CC1` (stereo not drawn) [Compound 5-100, N-hydroxy-2-(4-(4-(2-methoxyethyl)piperazin-1-yl)phenyl)-2-phenylacetamide] showed an IC50 of less than 1 µM.
With `CCN(CC)CC#Cc1ccc(C(C(=O)NO)c2ccccc2)cc1` (stereo not drawn) [Compound 5-101, 2-(4-(3-(diethylamino)prop-1-ynyl)phenyl)-N-hydroxy-2-phenylacetamide] the IC50 was less than 1 µM.
With `CCCc1ccc(C(C(=O)NO)c2ccccc2)cc1` (stereo not drawn) [Compound 5-102, N-hydroxy-2-phenyl-2-(4-propylphenyl)acetamide] the IC50 was less than 1 µM.
`O=C(NO)C(c1ccccc1)N1CCN(c2ccccc2O)CC1` (stereo not drawn) [Compound 5-103, N-hydroxy-2-(4-(2-hydroxyphenyl)piperazin-1-yl)-2-phenylacetamide] gave an IC50 of 1 to 15 µM.
`O=C(NO)C(c1ccc(N2CCOCC2)cc1)c1cccs1` (stereo not drawn) [Compound 5-104, N-hydroxy-2-(4-morpholinophenyl)-2-(thiophen-2-yl)acetamide] gave an IC50 of less than 1 µM.
Work on `O=C(NO)C(c1ccccc1)c1ccc(N2CCN(CC3CC3)CC2)cc1` (stereo not drawn) [Compound 5-105, 2-(4-(4-(cyclopropylmethyl)piperazin-1-yl)phenyl)-N-hydroxy-2-phenylacetamide] yielded an IC50 of less than 1 µM.
`O=C(NO)C(c1ccccc1)c1ccc(N2CCCC2=O)cc1` (stereo not drawn) [Compound 5-106, N-hydroxy-2-(4-(2-oxopyrrolidin-1-yl)phenyl)-2-phenylacetamide] was tested, and the IC50 was less than 1 µM.
`O=C(NO)C(c1ccccc1)c1ccc(N2Cc3ccccc3C2)cc1` (stereo not drawn) [Compound 5-107, N-hydroxy-2-(4-(isoindolin-2-yl)phenyl)-2-phenylacetamide] showed an IC50 of less than 1 µM.
`Nc1ccccc1NC(=O)c1ccc(C(C(=O)NO)c2ccccc2)cc1` (stereo not drawn) [Compound 5-108, N-(2-aminophenyl)-4-(2-(hydroxyamino)-2-oxo-1-phenylethyl)benzamide] gave an IC50 of less than 1 µM.
In the case of `COc1ccccc1COc1ccc(C(C(=O)NO)c2ccccc2)cc1` (stereo not drawn) [Compound 5-109, N-hydroxy-2-(4-(2-methoxybenzyloxy)phenyl)-2-phenylacetamide], the IC50 is reported as less than 1 µM.
Work on `O=C(NO)C(c1ccccc1)c1ccc(N2CCCCC2=O)cc1` (stereo not drawn) [Compound 5-110, N-hydroxy-2-(4-(2-oxopiperidin-1-yl)phenyl)-2-phenylacetamide] yielded an IC50 of less than 1 µM.
Molecule `O=C(NO)C(c1ccccc1)c1ccc(Oc2ccccc2)cc1` (stereo not drawn) [Compound 5-111, N-hydroxy-2-(4-phenoxyphenyl)-2-phenylacetamide] has an IC50 of less than 1 µM.
For `O=C(NO)C(c1ccc(N2CCOCC2)cc1)c1ccsc1` (stereo not drawn) [Compound 5-112, N-hydroxy-2-(4-morpholinophenyl)-2-(thiophen-3-yl)acetamide], the IC50 was less than 1 µM.
In the case of `COc1cccc(C(C(=O)NO)c2ccc(N3CCOCC3)cc2)c1` (stereo not drawn) [Compound 5-113, N-hydroxy-2-(3-methoxyphenyl)-2-(4-morpholinophenyl)acetamide], the IC50 is reported as less than 1 µM.
`O=C(NO)C(c1ccccc1)N1CCOCC1` (stereo not drawn) [Compound 5-113b, N-hydroxy-2-morpholino-2-phenylacetamide] was tested, and the IC50 was 1 to 15 µM.
`CCC(=O)ONC(=O)C(c1ccccc1)c1ccc(N2CCOCC2)cc1` (stereo not drawn) [Compound 5-114, 2-(4-morpholinophenyl)-2-phenyl-N-(propionyloxy)acetamide] gave an IC50 of 1 to 15 µM.
`Cc1ccc(C(C(=O)NO)c2ccc(N3CCOCC3)cc2)cc1` (stereo not drawn) [Compound 5-115, N-hydroxy-2-(4-morpholinophenyl)-2-p-tolylacetamide] was tested, and the IC50 was 1 to 15 µM.
Work on `O=C(NO)C(Sc1ccccc1)c1ccc(-c2ccncc2)cc1` (stereo not drawn) [Compound 5-116, N-hydroxy-2-(phenylthio)-2-(4-(pyridin-4-yl)phenyl)acetamide] yielded an IC50 of less than 1 µM.
`CC(=O)ONC(=O)C(c1ccccc1)c1ccc(N2CCOCC2)cc1` (stereo not drawn) [Compound 5-117, N-acetoxy-2-(4-morpholinophenyl)-2-phenylacetamide] gave an IC50 of 1 to 15 µM.
